Results from ChEMBL document CHEMBL1649369, “Novel 4-aryl-pyrido[1,2-c]pyrimidines with dual SSRI and 5-HT(1A) activity. part 3” (Eur J Med Chem, 2011).
Activity calls are given as the source filed them. The calls are words filed in the database; no cut-off is given here.

Legend:
[1] = target: Sodium-dependent serotonin transporter (Rattus norvegicus, UniProt P31652); assay: Displacement of [3H]citalopram from SERT in rat cerebral cortex by liquid scintillation counting; type: tissue-based
[2] = target: T1, 5-hydroxytryptamine receptor 1A (Rattus norvegicus, UniProt P19327); assay: Displacement of [3H]8-OH-DPAT from 5-HT1A receptor in rat hippocampus; type: tissue-based
T1 sequence (P19327 whole entry): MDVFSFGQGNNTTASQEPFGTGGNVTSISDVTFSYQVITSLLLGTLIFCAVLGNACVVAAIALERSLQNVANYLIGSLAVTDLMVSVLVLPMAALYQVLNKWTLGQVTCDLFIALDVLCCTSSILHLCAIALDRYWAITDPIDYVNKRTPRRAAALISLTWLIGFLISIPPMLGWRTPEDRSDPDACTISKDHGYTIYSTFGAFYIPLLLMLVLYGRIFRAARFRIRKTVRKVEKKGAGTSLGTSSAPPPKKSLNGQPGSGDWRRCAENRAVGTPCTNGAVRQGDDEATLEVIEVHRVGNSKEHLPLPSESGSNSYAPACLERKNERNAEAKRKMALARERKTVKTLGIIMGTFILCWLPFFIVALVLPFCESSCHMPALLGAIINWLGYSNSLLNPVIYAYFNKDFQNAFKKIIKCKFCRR

Mus musculus [3] = assay: Effect on hypothermia in Swiss albino mouse assessed as change in rectal body temperature at 2.5 mg/kg, ip after 60 mins by inducible hypothermia test; type: functional, organism-based; set-up: dose 2.5 mg/kg
Mus musculus [4] = assay: Effect on hypothermia in Swiss albino mouse assessed as change in rectal body temperature at 2.5 mg/kg, ip after 120 mins by inducible hypothermia test; type: functional, organism-based; set-up: dose 2.5 mg/kg
Mus musculus [5] = assay: Antidepressant activity in Swiss albino mouse assessed as total immobility time at 5 mg/kg, ip administered 30 mins before test measured 6 mins test session after 2 mins habituation period by forced swimming test; type: functional, organism-based; set-up: dose 5 mg/kg
Mus musculus [6] = assay: Effect on hypothermia in Swiss albino mouse assessed as change in rectal body temperature at 5 mg/kg, ip after 90 mins by inducible hypothermia test; type: functional, organism-based; set-up: dose 5 mg/kg
Mus musculus [7] = assay: Effect on hypothermia in Swiss albino mouse assessed as change in rectal body temperature at 5 mg/kg, ip dosed 15 mins after 0.1 mg/kg, sc WAY 100635 challenge measured after 30 mins by inducible hypothermia test; type: functional, organism-based
Mus musculus [8] = assay: Effect on hypothermia in Swiss albino mouse assessed as change in rectal body temperature at 5 mg/kg, ip after 30 mins by inducible hypothermia test; type: functional, organism-based; set-up: dose 5 mg/kg
Mus musculus [9] = assay: Effect on hypothermia in Swiss albino mouse assessed as change in rectal body temperature at 5 mg/kg, ip after 120 mins by inducible hypothermia test; type: functional, organism-based; set-up: dose 5 mg/kg
Mus musculus [10] = assay: Effect on hypothermia in Swiss albino mouse assessed as change in rectal body temperature at 2.5 mg/kg, ip after 90 mins by inducible hypothermia test; type: functional, organism-based; set-up: dose 2.5 mg/kg
Mus musculus [11] = assay: Effect on hypothermia in Swiss albino mouse assessed as change in rectal body temperature at 5 mg/kg, ip dosed 15 mins after 0.1 mg/kg, sc WAY 100635 challenge measured after 60 mins by inducible hypothermia test; type: functional, organism-based
Mus musculus [12] = assay: Antidepressant activity in Swiss albino mouse assessed as total immobility time at 2.5 mg/kg, ip administered 30 mins before test measured 6 mins test session after 2 mins habituation period by forced swimming test; type: functional, organism-based; set-up: dose 2.5 mg/kg
Mus musculus [13] = assay: Effect on hypothermia in Swiss albino mouse assessed as change in rectal body temperature at 5 mg/kg, ip after 60 mins by inducible hypothermia test; type: functional, organism-based; set-up: dose 5 mg/kg
Mus musculus [14] = assay: Effect on hypothermia in Swiss albino mouse assessed as change in rectal body temperature at 2.5 mg/kg, ip after 30 mins by inducible hypothermia test; type: functional, organism-based; set-up: dose 2.5 mg/kg
Mus musculus [15] = assay: Reduction of 8-OH-DPAT-induced hypothermia in Swiss albino mouse at 0.1 mg/kg, ip administered 45 mins prior 8-OH-DPAT challenge measured after 45 mins by inducible hypothermia test; type: functional, organism-based; set-up: dose 0.1 mg/kg
Mus musculus [16] = assay: Reduction of 8-OH-DPAT-induced hypothermia in Swiss albino mouse at 0.1 mg/kg, ip administered 45 mins prior 8-OH-DPAT challenge measured after 60 mins by inducible hypothermia test; type: functional, organism-based; set-up: dose 0.1 mg/kg
Mus musculus [17] = assay: Effect on hypothermia in Swiss albino mouse assessed as change in rectal body temperature at 0.1 mg/kg, ip after 30 mins by inducible hypothermia test; type: functional, organism-based; set-up: dose 0.1 mg/kg
Mus musculus [18] = assay: Effect on hypothermia in Swiss albino mouse assessed as change in rectal body temperature at 0.1 mg/kg, ip after 90 mins by inducible hypothermia test; type: functional, organism-based; set-up: dose 0.1 mg/kg
Mus musculus [19] = assay: Reduction of 8-OH-DPAT-induced hypothermia in Swiss albino mouse at 0.1 mg/kg, ip administered 45 mins prior 8-OH-DPAT challenge measured after 30 mins by inducible hypothermia test; type: functional, organism-based; set-up: dose 0.1 mg/kg
Mus musculus [20] = assay: Reduction of 8-OH-DPAT-induced hypothermia in Swiss albino mouse at 0.1 mg/kg, ip administered 45 mins prior 8-OH-DPAT challenge measured after 15 mins by inducible hypothermia test; type: functional, organism-based; set-up: dose 0.1 mg/kg
Mus musculus [21] = assay: Effect on hypothermia in Swiss albino mouse assessed as change in rectal body temperature at 0.1 mg/kg, ip after 60 mins by inducible hypothermia test; type: functional, organism-based; set-up: dose 0.1 mg/kg
Mus musculus [22] = assay: Effect on hypothermia in Swiss albino mouse assessed as change in rectal body temperature at 0.1 mg/kg, ip after 120 mins by inducible hypothermia test; type: functional, organism-based; set-up: dose 0.1 mg/kg

Chain of Sodium-dependent serotonin transporter (P31652 whole entry): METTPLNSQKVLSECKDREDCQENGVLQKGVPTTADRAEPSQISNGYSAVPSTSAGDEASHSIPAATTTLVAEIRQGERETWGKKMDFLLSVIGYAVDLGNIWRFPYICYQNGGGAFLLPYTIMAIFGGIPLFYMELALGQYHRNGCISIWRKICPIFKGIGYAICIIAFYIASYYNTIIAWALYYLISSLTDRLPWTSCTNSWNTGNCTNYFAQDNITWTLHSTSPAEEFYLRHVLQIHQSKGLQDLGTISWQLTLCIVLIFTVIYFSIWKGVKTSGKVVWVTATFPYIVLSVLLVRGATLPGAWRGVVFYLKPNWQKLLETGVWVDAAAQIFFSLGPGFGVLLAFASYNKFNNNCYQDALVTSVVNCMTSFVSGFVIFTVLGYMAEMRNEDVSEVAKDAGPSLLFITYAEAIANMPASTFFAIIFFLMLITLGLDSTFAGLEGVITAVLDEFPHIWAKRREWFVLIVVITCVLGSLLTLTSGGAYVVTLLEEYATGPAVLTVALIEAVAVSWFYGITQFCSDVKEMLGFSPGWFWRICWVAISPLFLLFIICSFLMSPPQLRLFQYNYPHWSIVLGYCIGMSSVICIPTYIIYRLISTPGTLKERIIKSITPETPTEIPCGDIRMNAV

Q: For `Cc1ccc(-c2c3n(c(=O)n(CCCCN4CCC(c5c(C)[nH]c6ccccc56)CC4)c2=O)CCCC3)cc1`, which Ki [1] is on record?
A: Its Ki is 1800 nM.

Q: And the Ki [2]?
A: Its Ki is 279 nM.

Q: Which results are given for `Cc1[nH]c2ccccc2c1C1CCN(CCCCn2c(=O)c(-c3ccccc3F)c3n(c2=O)CCCC3)CC1`?
A: Ki [1]: 1300 nM; Ki [2]: 303 nM

Q: Which deltaT (Mus musculus [3]) does the source give for `O=c1c(-c2ccc(Cl)cc2)c2n(c(=O)n1CCCCN1CCC(c3c[nH]c4ccccc34)CC1)CCCC2` here?
A: The deltaT was -0.4 °C.

Q: What about the Ki [1] of the same molecule?
A: The Ki was 44.1 nM.

Q: And the deltaT (Mus musculus [4])?
A: The deltaT was -0.1 °C.

Q: And the Activity (Mus musculus [5])?
A: The Activity was “inactive”.

Q: What about the deltaT (Mus musculus [6]) of the same molecule?
A: The deltaT was -0.4 °C.

Q: What about the deltaT (Mus musculus [7]) of the same molecule?
A: The deltaT was -0.2 °C.

Q: And the deltaT (Mus musculus [8])?
A: Its deltaT is -1 °C.

Q: And the deltaT (Mus musculus [9])?
A: The deltaT was -0.3 °C.

Q: And the deltaT (Mus musculus [10])?
A: Its deltaT is -0.1 °C.

Q: What about the deltaT (Mus musculus [11]) of the same molecule?
A: Its deltaT is -0.1 °C.

Q: What about the Ki [2] of the same molecule?
A: The Ki was 48.6 nM.

Q: What about the Activity (Mus musculus [12]) of the same molecule?
A: Its Activity is “inactive”.

Q: What about the deltaT (Mus musculus [13]) of the same molecule?
A: The deltaT was -0.5 °C.

Q: And the deltaT (Mus musculus [14])?
A: Its deltaT is -0.3 °C.

Q: With `CC(C)NCC(O)COc1cccc2[nH]ccc12` (stereo not drawn) as the molecule, how does the deltaT (Mus musculus [15]) read?
A: The deltaT was -0.1 °C.

Q: And the deltaT (Mus musculus [16])?
A: The deltaT was -0.1 °C.

Q: And the deltaT (Mus musculus [7])?
A: Its deltaT is -0.2 °C.

Q: And the deltaT (Mus musculus [17])?
A: Its deltaT is -0.2 °C.

Q: What about the deltaT (Mus musculus [11]) of the same molecule?
A: Its deltaT is -0.1 °C.

Q: What about the deltaT (Mus musculus [18]) of the same molecule?
A: The deltaT was -0.1 °C.

Q: What about the deltaT (Mus musculus [19]) of the same molecule?
A: The deltaT was -0.1 °C.

Q: And the deltaT (Mus musculus [20])?
A: The deltaT was -0.1 °C.

Q: And the deltaT (Mus musculus [21])?
A: Its deltaT is -0.1 °C.

Q: And the deltaT (Mus musculus [22])?
A: Its deltaT is -0.1 °C.
